# Reference: patent US20200131196A1 (Mount Tam Therapeutics, Inc., priority 2017, published 2020)
# pEC50, pIC50: −log10 of the molar value. Where two headings read alike, the source gives them in different places.
# Assays:
# PC-3 = assay: OncoPanel cell proliferation assay, PC-3
# Description: (§5) Cells were seeded into 384-well plates and incubated in a humidified atmosphere of 5% CO2 at 37° C. Compounds were added the day following cell seeding. At the same time, a time zero untreated cell plate was generated. After a 3-day incubation period, cells were fixed and stained to allow fluorescence imaging of nuclei. Compounds (1 mM stock solutions) were serially diluted in half-log steps from the highest test concentration (1 micromol), and assayed over 10 concentrations with a maximum assay concentration of 0.1% DMSO. Automated fluorescence microscopy was carried out using a Molecular Devices ImageXpress Micro XL high-content imager, and images were collected with a 4× objective. 16-bit TIFF images were acquired and analyzed with MetaXpress 5.1.0.41 software.
# (§6) GI50 is the concentration needed to reduce the observed growth by half (midway between the curve maximum and the time zero value). […] In rare instances, values <0 or >10 may be observed. […] Curve-fitting, calculations, and report generation was performed using a custom data reduction engine and MathIQ based software (AIM).
# AsPC-1 = assay: OncoPanel cell proliferation assay, AsPC-1
# Description: as §5, §6
# SNU-C2B = assay: OncoPanel cell proliferation assay, SNU-C2B; format: cell-based, human
# Description: (§1) Cells were grown in RPMI 1640, 10% FBS, 2 mM L-alanyl-L-glutamine, 1 mM Na pyruvate, or a special medium. Cells were seeded into 384-well plates and incubated in a humidified atmosphere of 5% CO2 at 37° C. Compounds were added the day following cell seeding. At the same time, a time zero untreated cell plate was generated. After a 3-day incubation period, cells were fixed and stained to allow fluorescence imaging of nuclei. Compounds (1 mM stock solutions) were serially diluted in half-log steps from the highest test concentration ([…]), and assayed over 10 concentrations with a maximum assay concentration of 0.1% DMSO. Automated fluorescence microscopy was carried out using a Molecular Devices ImageXpress Micro XL high-content imager, and images were collected with a 4× objective. 16-bit TIFF images were acquired and analyzed with MetaXpress 5.1.0.41 software.
# (§2) Cell proliferation was measured by the fluorescence intensity of an incorporated nuclear dye. The output is referred to as the relative cell count, where the measured nuclear intensity is transformed to percent of control (POC) using the following formula: […]
# (§3) Cellular response parameters were calculated using nonlinear regression to a sigmoidal single-site dose response model:
# (§4) EC50 is the test compound concentration at the curve inflection point or half the effective response (parameter C of the fitted curve solution). GI50 is the concentration needed to reduce the observed growth by half (midway between the curve maximum and the time zero value). “Cell Count Activity Area” is an estimate of the integrated area above the curve (Barretina, et al. The Cancer Cell Line Encyclopedia enables predictive modelling of anticancer drug sensitivity. Nature 483: 603-607). […] In rare instances, values <0 or >10 may be observed. […] Curve-fitting, calculations, and report generation was performed using a custom data reduction engine and MathIQ based software (AIM).
# 786-O = assay: OncoPanel cell proliferation assay, 786-O; format: cell-based, human
# Description: as §1, §2, §3, §4
# T24 = assay: OncoPanel cell proliferation assay, T24; format: cell-based, human
# Description: as §1, §2, §3, §4
# A431 = assay: OncoPanel cell proliferation assay, A431; format: cell-based, human
# Description: as §1, §2, §3, §4
# CAMA-1 = assay: OncoPanel cell proliferation assay, CAMA-1
# Description: as §5, §6
smiles,measurement,setting,value
"CO[C@H]1C[C@@H]2CC[C@@H](C)[C@@](O)(O2)C(=O)C(=O)N2CCCC[C@H]2C(=O)O[C@H]([C@H](C)C[C@H]2C[C@H]3C[C@@H]2C[C@@H]3O)CC(=O)[C@H](C)/C=C(\C)[C@@H](O)[C@@H](OC)C(=O)[C@H](C)C[C@H](C)/C=C/C=C/C=C/1C [Formula II, C37-[(1R,2S,4R,5S)-5-hyhroxybicyclo[2.2.1]heptane] rapamycin]",pEC50,"PC-3; Homo sapiens, PC-3, read-out: Cell Count EC50",9.20
same,GI50,"PC-3; Homo sapiens, PC-3, read-out: Cell Count GI50",3.99 nM
same,pIC50,"PC-3; Homo sapiens, PC-3, read-out: Cell Count IC50",7.74
same,Cell Count Activity Area,PC-3; PC-3,3.80
same,Relative cell count (%) Mean,"PC-3; PC-3, 1.00E+00 microM",42.2%
same,Relative cell count (%) Mean,"PC-3; PC-3, 1.00E-01 microM",50.3%
same,Relative cell count (%) Mean,"PC-3; PC-3, 1.00E-02 microM",59.2%
same,Relative cell count (%) Mean,"PC-3; PC-3, 1.00E-03 microM",70.9%
same,Relative cell count (%) Mean,"PC-3; PC-3, 1.01E-04 microM",98.3%
same,Relative cell count (%) Mean,"PC-3; PC-3, 3.16E-01 microM",47.6%
same,Relative cell count (%) Mean,"PC-3; PC-3, 3.17E-02 microM",50.8%
same,Relative cell count (%) Mean,"PC-3; PC-3, 3.17E-03 microM",61.5%
same,Relative cell count (%) Mean,"PC-3; PC-3, 3.18E-04 microM",73.9%
same,Relative cell count (%) Mean,"PC-3; PC-3, 3.18E-05 microM",96.9%
same,Cell Count Activity Area,AsPC-1; AsPC-1,1.68
same,Relative cell count (%) Mean,"AsPC-1; AsPC-1, 1.00E+00 microM",70.3%
same,Relative cell count (%) Mean,"AsPC-1; AsPC-1, 1.00E-01 microM",74.4%
same,Relative cell count (%) Mean,"AsPC-1; AsPC-1, 1.00E-02 microM",89.3%
same,Relative cell count (%) Mean,"AsPC-1; AsPC-1, 1.00E-03 microM",90.9%
same,Relative cell count (%) Mean,"AsPC-1; AsPC-1, 1.01E-04 microM",105.4%
same,Relative cell count (%) Mean,"AsPC-1; AsPC-1, 3.16E-01 microM",77.3%
same,Relative cell count (%) Mean,"AsPC-1; AsPC-1, 3.17E-02 microM",81.7%
same,Relative cell count (%) Mean,"AsPC-1; AsPC-1, 3.17E-03 microM",90.9%
same,Relative cell count (%) Mean,"AsPC-1; AsPC-1, 3.18E-04 microM",97.5%
same,Relative cell count (%) Mean,"AsPC-1; AsPC-1, 3.18E-05 microM",104.0%
same,pEC50,"AsPC-1; Homo sapiens, ASPC1",8.07
same,pEC50,"AsPC-1; Homo sapiens, ASPC1, read-out: Cell Count EC50",8.07
same,GI50,"AsPC-1; Homo sapiens, ASPC1, read-out: Cell Count GI50",246 nM
same,pIC50,"AsPC-1; Homo sapiens, ASPC1, read-out: Cell Count IC50",< 6.00
same,Cell Count Activity Area,SNU-C2B,2.73
same,Relative cell count (%) Mean,SNU-C2B; 1.00E+00 microM,74.9%
same,Relative cell count (%) Mean,SNU-C2B; 1.00E-01 microM,76.2%
same,Relative cell count (%) Mean,SNU-C2B; 1.00E-02 microM,79.1%
same,Relative cell count (%) Mean,SNU-C2B; 1.00E-03 microM,74.1%
same,Relative cell count (%) Mean,SNU-C2B; 1.01E-04 microM,97.1%
same,Relative cell count (%) Mean,SNU-C2B; 3.16E-01 microM,66.6%
same,Relative cell count (%) Mean,SNU-C2B; 3.17E-02 microM,69.5%
same,Relative cell count (%) Mean,SNU-C2B; 3.17E-03 microM,76.3%
same,Relative cell count (%) Mean,SNU-C2B; 3.18E-04 microM,88.6%
same,Relative cell count (%) Mean,SNU-C2B; 3.18E-05 microM,106.6%
same,pEC50,"SNU-C2B; Homo sapiens, read-out: Cell Count EC50",9.75
same,GI50,"SNU-C2B; Homo sapiens, read-out: Cell Count GI50",3.16 nM
same,pIC50,"SNU-C2B; Homo sapiens, read-out: Cell Count IC50",< 6.00
same,Relative cell count (%) Mean,"786-O; 786-0, 1.00E+00 microM",36.7%
same,Relative cell count (%) Mean,"786-O; 786-0, 1.00E-01 microM",45.5%
same,Relative cell count (%) Mean,"786-O; 786-0, 1.00E-02 microM",55.7%
same,Relative cell count (%) Mean,"786-O; 786-0, 1.00E-03 microM",78.6%
same,Relative cell count (%) Mean,"786-O; 786-0, 1.01E-04 microM",92.0%
same,Relative cell count (%) Mean,"786-O; 786-0, 3.16E-01 microM",43.3%
same,Relative cell count (%) Mean,"786-O; 786-0, 3.17E-02 microM",48.2%
same,Relative cell count (%) Mean,"786-O; 786-0, 3.17E-03 microM",65.0%
same,Relative cell count (%) Mean,"786-O; 786-0, 3.18E-04 microM",80.1%
same,Relative cell count (%) Mean,"786-O; 786-0, 3.18E-05 microM",96.8%
same,Cell Count Activity Area,786-O; 786-O,4.01
same,pEC50,"786-O; Homo sapiens, 786-0, 786-O, read-out: Cell Count EC50",8.80
same,GI50,"786-O; Homo sapiens, 786-0, 786-O, read-out: Cell Count GI50",7.1 nM
same,pIC50,"786-O; Homo sapiens, 786-0, 786-O, read-out: Cell Count IC50",7.79
same,Cell Count Activity Area,T24,4.16
same,Relative cell count (%) Mean,T24; 1.00E+00 microM,36.6%
same,Relative cell count (%) Mean,T24; 1.00E-01 microM,42.2%
same,Relative cell count (%) Mean,T24; 1.00E-02 microM,52.8%
same,Relative cell count (%) Mean,T24; 1.00E-03 microM,61.8%
same,Relative cell count (%) Mean,T24; 1.01E-04 microM,85.7%
same,Relative cell count (%) Mean,T24; 3.16E-01 microM,40.8%
same,Relative cell count (%) Mean,T24; 3.17E-02 microM,48.5%
same,Relative cell count (%) Mean,T24; 3.17E-03 microM,52.6%
same,Relative cell count (%) Mean,T24; 3.18E-04 microM,69.8%
same,Relative cell count (%) Mean,T24; 3.18E-05 microM,93.2%
same,pEC50,"T24; Homo sapiens, T-24, read-out: Cell Count EC50",9.33
same,GI50,"T24; Homo sapiens, T-24, read-out: Cell Count GI50",3.09 nM
same,pIC50,"T24; Homo sapiens, T-24, read-out: Cell Count IC50",8.17
same,Cell Count Activity Area,A431,1.43
same,Relative cell count (%) Mean,A431; 1.00E+00 microM,71.4%
same,Relative cell count (%) Mean,A431; 1.00E-01 microM,80.3%
same,Relative cell count (%) Mean,A431; 1.00E-02 microM,85.0%
same,Relative cell count (%) Mean,A431; 1.00E-03 microM,94.6%
same,Relative cell count (%) Mean,A431; 1.01E-04 microM,103.1%
same,Relative cell count (%) Mean,A431; 3.16E-01 microM,75.3%
same,Relative cell count (%) Mean,A431; 3.17E-02 microM,81.8%
same,Relative cell count (%) Mean,A431; 3.17E-03 microM,96.4%
same,Relative cell count (%) Mean,A431; 3.18E-04 microM,102.0%
same,Relative cell count (%) Mean,A431; 3.18E-05 microM,100.9%
same,pEC50,"A431; Homo sapiens, A-431, Skin, Head/Neck, summary Table 5, read-out: EC50",7.92
same,pEC50,"A431; Homo sapiens, A-431, read-out: Cell Count EC50",7.92
same,GI50,"A431; Homo sapiens, A-431, read-out: Cell Count GI50",> 1000 nM
same,pIC50,"A431; Homo sapiens, A-431, read-out: Cell Count IC50",< 6.00
same,Cell Count Activity Area,CAMA-1; CAMA-1,4.22
same,Relative cell count (%) Mean,"CAMA-1; CAMA-1, 1.00E+00 microM",42.0%
same,Relative cell count (%) Mean,"CAMA-1; CAMA-1, 1.00E-01 microM",45.4%
same,Relative cell count (%) Mean,"CAMA-1; CAMA-1, 1.00E-02 microM",54.6%
same,Relative cell count (%) Mean,"CAMA-1; CAMA-1, 1.00E-03 microM",64.5%
same,Relative cell count (%) Mean,"CAMA-1; CAMA-1, 1.01E-04 microM",98.0%
same,Relative cell count (%) Mean,"CAMA-1; CAMA-1, 3.16E-01 microM",43.0%
same,Relative cell count (%) Mean,"CAMA-1; CAMA-1, 3.17E-02 microM",45.1%
same,Relative cell count (%) Mean,"CAMA-1; CAMA-1, 3.17E-03 microM",55.9%
same,Relative cell count (%) Mean,"CAMA-1; CAMA-1, 3.18E-04 microM",79.7%
same,Relative cell count (%) Mean,"CAMA-1; CAMA-1, 3.18E-05 microM",96.5%
same,pEC50,"CAMA-1; Homo sapiens, CAMA-1, read-out: Cell Count EC50",9.31
same,GI50,"CAMA-1; Homo sapiens, CAMA-1, read-out: Cell Count GI50",0.647 nM
same,pIC50,"CAMA-1; Homo sapiens, CAMA-1, read-out: Cell Count IC50",8.36
